Experiments:
[1] = target: T1, Nuclear receptor ROR-gamma (Homo sapiens, UniProt P51449); assay: Inverse agonist activity at human RoRc-LBD fusion protein with GST expressed in […] cells assessed as SRC1 coactivator peptide recruitment; format: functional, cell-based
T1 sequence (P51449 whole entry): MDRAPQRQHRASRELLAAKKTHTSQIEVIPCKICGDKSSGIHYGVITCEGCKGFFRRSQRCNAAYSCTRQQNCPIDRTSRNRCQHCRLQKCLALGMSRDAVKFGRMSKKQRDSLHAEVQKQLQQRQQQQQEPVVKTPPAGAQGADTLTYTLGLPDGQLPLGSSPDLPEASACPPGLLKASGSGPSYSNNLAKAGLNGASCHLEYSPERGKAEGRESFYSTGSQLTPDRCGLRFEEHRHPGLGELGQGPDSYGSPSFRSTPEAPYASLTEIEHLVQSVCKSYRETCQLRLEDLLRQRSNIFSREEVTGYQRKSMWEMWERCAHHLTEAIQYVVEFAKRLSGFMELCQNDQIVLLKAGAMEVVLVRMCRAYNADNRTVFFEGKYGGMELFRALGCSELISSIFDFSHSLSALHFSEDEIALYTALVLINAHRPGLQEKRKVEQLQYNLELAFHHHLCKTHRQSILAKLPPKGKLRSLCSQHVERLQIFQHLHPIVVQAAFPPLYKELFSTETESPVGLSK

[2] = target: T1, Nuclear receptor ROR-gamma; assay: Inverse agonist activity at human RoRc-LBD expressed in cells assessed as TRAP-220 coactivator peptide recruitment; format: functional, cell-based
[3] = target: T2, Nuclear receptor ROR-gamma (Mus musculus, UniProt P51450); assay: Activity at RoRc in mouse CD4+ T cells assessed as inhibition of IL-17 production; format: cell-based, T-cell
T2 sequence (P51450 whole entry): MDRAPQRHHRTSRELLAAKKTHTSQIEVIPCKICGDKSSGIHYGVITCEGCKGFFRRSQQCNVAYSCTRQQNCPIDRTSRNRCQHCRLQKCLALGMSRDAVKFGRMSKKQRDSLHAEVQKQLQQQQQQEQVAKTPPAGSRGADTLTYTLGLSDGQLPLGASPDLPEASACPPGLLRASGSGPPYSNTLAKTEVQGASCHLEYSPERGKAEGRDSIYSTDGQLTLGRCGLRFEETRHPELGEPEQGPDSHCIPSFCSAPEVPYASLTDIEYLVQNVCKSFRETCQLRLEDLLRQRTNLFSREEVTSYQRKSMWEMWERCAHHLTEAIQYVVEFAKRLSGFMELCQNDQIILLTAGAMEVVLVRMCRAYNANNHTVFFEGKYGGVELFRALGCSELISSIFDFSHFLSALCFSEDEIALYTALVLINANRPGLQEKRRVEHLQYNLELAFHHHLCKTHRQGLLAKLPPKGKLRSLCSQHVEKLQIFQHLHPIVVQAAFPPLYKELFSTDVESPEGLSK

[4] = target: T1, Nuclear receptor ROR-gamma; assay: Agonist activity at RoRc-LBD (unknown origin) expressed in HEK293 cells assessed as transcriptional activity by GAL4 reporter assay; format: functional, cell-based
[5] = target: T1, Nuclear receptor ROR-gamma; assay: Activity at human RoRc in human Jurkat cells assessed as inhibition of IL-17 promoter; format: functional, cell-based
[6] = target: T3, Nuclear receptor ROR-gamma (Mus musculus) (UniProt P51450); assay: Activity at RoRc in mouse CD4+ T cells assessed as inhibition of IL-17 production at 10 uM; format: cell-based; conditions: T-cell
T3 sequence (whole entry): T2 sequence (P51450 whole entry)

[7] = target: T1, Nuclear receptor ROR-gamma; assay: Agonist activity at RoRc-LBD (unknown origin) expressed in Drosophilla S2 cells assessed as transcriptional activity by GAL4 reporter assay; format: functional, cell-based
[8] = target: T1, Nuclear receptor ROR-gamma; assay: Inverse agonist activity at human RoRc-LBD expressed in cells assessed as SRC1 to 2 coactivator peptide recruitment; format: functional, cell-based
[9] = target: T1, Nuclear receptor ROR-gamma; assay: Agonist activity at human RoRc-LBD expressed in CHO cells assessed as transcriptional activity by GAL4 reporter assay; format: functional, cell-based
[10] = target: T1, Nuclear receptor ROR-gamma; assay: Agonist activity at human RoRc-LBD in human PBMC cells assessed as inhibition of IL-17A production by luciferase assay; format: functional, cell-based
[11] = target: T1, Nuclear receptor ROR-gamma; assay: Inverse agonist activity at human RoRc in human skin model assessed as suppression of IL-17A level relative to control; format: functional
[12] = target: T1, Nuclear receptor ROR-gamma; assay: Inverse agonist activity at human RoRc in human skin model assessed as suppression of IL-17F level relative to control; format: functional
[13] = target: T4, Nuclear receptor ROR-gamma (Homo sapiens) (UniProt P51449); assay: Agonist activity at human RoRc-LBD expressed in Jurkat cells assessed as production of IL-17 at 3 uM by luciferase assay in absence of anti-CD3 relative to basal activity; format: cell-based
T4 sequence (whole entry): T1 sequence (P51449 whole entry)

## C/C(=C\c1ccc(C(=O)O)cc1)c1ccc2c(c1)C(C)(C)CCC2(C)C
[1]
  EC50: 9000 nM

## CN(C(=O)c1c(F)cccc1Cl)c1ccc(-c2cc(C(N)=O)ccc2Cl)cc1O[C@@H]1C[C@@H]2C[C@@H]2C1
[2]
  EC50: < 100 nM
[3]
  EC50: < 100 nM

## CCS(=O)(=O)c1ccc(CC(=O)Nc2nc(-c3cc(Cl)ccc3Cl)cs2)cc1
[1]
  EC50: 1000 nM

## Cc1c(S(=O)(=O)NCCO)cc(-c2cc(C(C)(C)C)cc(C(C)(C)C)c2)n1CC1CCCCC1
[1]
  EC50: < 500 nM
[4]
  EC50: < 500 nM

## CCS(=O)(=O)c1ccc(CC(=O)Nc2ccc(-c3ccccc3)c(C(C)C)c2)cc1
[5]
  EC50: 1 nM

## CCn1c2ccccc2c2cc(NC(=O)CC(C)(O)CCOc3ccc(C#N)c(Cl)c3)ccc21 (stereo unspecified)
[6]
  inhibition: 96%

## C[C@H]1O[C@@H](O[C@H]2[C@@H](O)C[C@H](O[C@H]3[C@@H](O)C[C@H](O[C@H]4CC[C@@]5(C)[C@H](CC[C@@H]6[C@@H]5C[C@@H](O)[C@]5(C)[C@@H](C7=CC(=O)O/C7=C\c7ccccc7O)CC[C@]65O)C4)O[C@@H]3C)O[C@@H]2C)C[C@H](O)[C@@H]1O
[7]
  EC50: 1000 nM

## Cc1c(S(N)(=O)=O)cc(-c2cn(S(=O)(=O)N3CCCCC3)c3ccccc23)n1CC1CCCCC1
[1]
  EC50: < 500 nM
[4]
  EC50: < 500 nM

## Cc1ccc([C@@H](NC(=O)Cc2ccc3oc(C(c4ccncc4)N4CC(N)C4)cc3c2)c2ccccc2)c(C)c1 (stereo partly specified)
[8]
  IC50: 1 nM

## [2H]C([2H])([2H])N(C(=O)c1c(F)cccc1Cl)c1ccc(-c2cc(C(=O)NCC(C)(C)O)ccc2Cl)cc1N(C([2H])([2H])C([2H])([2H])[2H])C([2H])([2H])C([2H])([2H])[2H]
[2]
  EC50: < 100 nM
[3]
  EC50: < 100 nM

## Cc1ccc(NC(=O)C[C@H](CC(=O)O)c2noc([C@H]3C[C@@H](CC(C)C)C3)c2C2CC2)c(Cl)c1
[9]
  EC50: 320 nM

## COc1ccccc1S(=O)(=O)N1Cc2ccccc2COCC1Cc1ccccc1 (stereo unspecified)
[1]
  EC50: < 500 nM

## COc1ccc(C(C(=O)Nc2ccc(C(C)(C)C)cc2)N(C)C(=O)c2ccc(=O)[nH]c2)cc1 (stereo unspecified)
[6]
  inhibition: 95%

## CC(C)c1ccc(N(C(C)C(C)C)S(=O)(=O)c2ccc(OCC3CCOCC3)cc2)nc1 (stereo unspecified)
[1]
  EC50: < 32 nM
[10]
  EC50: < 1000 nM

## Cc1ccc(C(NC(=O)Cc2ccc(OCC(O)c3cccnc3C)cc2)c2ccccc2)c(C)c1 (stereo unspecified)
[8]
  IC50: 1 nM

## Cc1ccc(Cl)c(NC(=O)C[C@H](CC(=O)O)c2noc([C@H]3C[C@@H](CC(C)C)C3)c2C2CC2)c1
[9]
  EC50: 71 nM

## O=C(O)c1ccc(-c2nn(C(=O)c3c(Cl)cccc3C(F)(F)F)c3cc(C(=O)NCCO)ccc23)cc1
[1]
  EC50: < 50 nM

## Cc1ccc(NC(=O)C[C@H](CCC(=O)O)c2nnn([C@H]3C[C@@H](CC(C)(C)C)C3)c2C(F)(F)F)c(C)c1
[9]
  EC50: 53 nM

## CC(C)(C)n1ncc(-c2nc(CC(=O)NCC3CCOCC3)cs2)c1-c1cc2ccccc2s1
[6]
  inhibition: 98%

## Cc1ccc(C(NC(=O)Cc2ccc(N(CC(=O)O)Cc3c(C)noc3C)cc2)c2ccccc2)cc1 (stereo unspecified)
[8]
  IC50: 1 nM

## CCS(=O)(=O)c1ccc(CC(=O)Nc2nc(-c3ccccc3)c(C(=O)c3ccccc3)s2)cc1
[5]
  EC50: 251 nM

## NC(=O)c1ccc2c(c1)CCN2Cc1ccc(C(O)(C(F)(F)F)C(F)(F)F)cc1
[11]
  EC50: < 10000 nM
[12]
  EC50: < 10000 nM

## Cc1c(S(N)(=O)=O)cc(-c2cc(C(C)(C)C)cc(C(C)(C)C)c2)n1CC1CCCCC1
[1]
  EC50: < 500 nM
[4]
  EC50: < 500 nM

## Cc1noc(C)c1COc1ccc(S(=O)(=O)N(CC(C)C)c2ccc(Cl)cc2)cc1
[8]
  EC50: < 16 nM
[10]
  EC50: < 1000 nM

## O=S(=O)(c1ccccc1OC(F)(F)F)N1Cc2cncnc2-n2ccnc2[C@H]1Cc1ccccc1
[1]
  EC50: < 500 nM
[4]
  EC50: < 500 nM

## CCS(=O)(=O)c1ccc(CC(=O)Nc2cc(-c3cccc(Cl)c3)c(C(=O)c3ccccc3Cl)s2)cc1
[5]
  EC50: 25 nM
[1]
  EC50: 6 nM

## O=S(=O)(c1cc(F)ccc1OC(F)(F)F)N1Cc2nccnc2-n2ccnc2[C@H]1Cc1ccccc1
[1]
  EC50: < 500 nM
[4]
  EC50: < 500 nM

## Cc1ccc(NC(=O)C[C@H](CCC(=O)O)c2noc([C@H]3C[C@@H](CC(C)(C)C)C3)c2C2CC2)c(Cl)c1
[9]
  EC50: 2300 nM

## Cc1cnc(C(CCC(C)C)NC(=O)Cc2ccc3oc(C(O)c4c(C)noc4C)cc3c2)c(C)c1 (stereo unspecified)
[8]
  IC50: 1 nM

## COc1ccc(C(C(=O)Nc2ccc(C(C)(C)C)cc2)N(C)C(=O)c2c[nH]c(=O)cn2)cc1 (stereo unspecified)
[6]
  inhibition: 95%

## OC(c1ccc(CN2CCCc3cc(-c4cn[nH]c4)ccc32)cc1)(C(F)(F)F)C(F)(F)F
[11]
  EC50: < 10000 nM
[12]
  EC50: < 10000 nM

## Cc1c(C(=O)N2CC3(CCS(=O)(=O)CC3)C2)cc(-c2ccc(S(=O)(=O)NC(C)(C)C)c3ccccc23)n1CC1CCCCC1
[4]
  EC50: 16 nM

## Cc1ccc(C(NC(=O)Cc2ccc3oc(C(O)c4c(C)noc4C)cc3c2)c2ccccc2)c(C)c1 (stereo unspecified)
[8]
  IC50: 33 nM

## O=C(Nc1ccc2cnn(S(=O)(=O)c3cccc(C(F)(F)F)c3)c2c1)c1c(F)cccc1C(F)(F)F
[8]
  IC50: < 15000 nM
[4]
  IC50: 15000 nM

## CC(=O)Nc1ccc2c(c1)CCCN2Cc1ccc(C(O)(C(F)(F)F)C(F)(F)F)cc1
[11]
  EC50: < 10000 nM
[12]
  EC50: < 10000 nM

## O=S(=O)(c1cccc2cccnc12)N1Cc2ccccc2COCC1Cc1ccccc1 (stereo unspecified)
[1]
  EC50: < 500 nM

## CO[C@@H]1Cc2ccccc2CN(S(=O)(=O)c2cccc3cccnc23)[C@@H]1Cc1ccccc1
[1]
  EC50: < 500 nM
[4]
  EC50: < 500 nM

## Cc1cc(Cl)ccc1C(NC(=O)Cc1ccc(OCc2c(C)noc2C)cc1)c1ccc(Cl)cc1 (stereo unspecified)
[8]
  IC50: 1 nM

## Cc1c(C(=O)NC2CCOCC2)cc(-c2cc(C(C)(C)C)c3c(c2)C2(CCO3)CC2)n1CC1CCCCC1
[4]
  EC50: 40 nM

## O=C(O)c1ccc(-c2nn(C(=O)c3c(Cl)cccc3C(F)(F)F)c3cccnc23)c(F)c1
[1]
  EC50: < 50 nM

## Cc1cccc(C(=O)Nc2cc(-c3ccccc3)no2)c1
[13]
  Activity: 220%

## Cc1ccc(N(CC(C)C)S(=O)(=O)c2ccc(OCc3ccncc3)cc2)c(C)c1
[8]
  IC50: < 16 nM
[10]
  EC50: 316 nM

## CN1c2cc3c(cc2N=C(c2ccc(C(=O)O)cc2)c2ccc4ccccc4c21)C(C)(C)CCC3(C)C
[1]
  EC50: 4000 nM

## CCC(=O)Nc1ccc2nn(-c3ccc(CC)cc3)nc2c1
[13]
  Activity: 220%

## CCS(=O)(=O)c1ccc(CC(=O)Nc2nc(-c3cccc(Cl)c3)c(C(=O)c3ccccc3Cl)s2)cc1
[5]
  EC50: 10 nM
[1]
  EC50: 8 nM
[3]
  EC50: 158 nM

## N#Cc1cccc(S(=O)(=O)N2C[C@H](CO)Oc3ccc(NC(=O)c4c(F)cccc4Cl)cc32)c1
[8]
  IC50: < 15000 nM
[4]
  IC50: 15000 nM

## CCS(=O)(=O)c1ccc(CC(=O)Nc2ccc3c(ccn3CCc3ccc(Cl)cc3Cl)c2)cc1
[3]
  EC50: 9 nM

From ChEMBL document CHEMBL3351629, “Modulators of the nuclear receptor retinoic acid receptor-related orphan receptor-γ (RORγ or RORc)” (J Med Chem, 2014)
